Patent publication US10995068B2, “Synthetic sphingolipid-like molecules, drugs, methods of their synthesis and methods of treatment” (The Regents of the University of California, priority 2015, dated 2021)

How the values were obtained:
Type in all cases: cell-based
[1] = system: murine hematopoietic cell line FL5.12; experiment: Viability of FL5.12 cells by vital dye exclusion; settings: Mus musculus; FL5.12 cells, 48 h, vital dye exclusion; n ≥3; read-out: IC50 (μM) [95% CI]
Method: Cell culture studies: FL5.12 cells (murine hematopoetic cells originally obtained from Craig Thompson, Memorial Sloan Kettering Cancer Center) were maintained at 0.1-0.5 million/ml in RPMI 1640 (Mediatech) supplemented with 10% fetal calf serum (FCS, Sigma-Aldrich), 10 mM Hepes (Mediatech), 500 pg/ml recombinant IL-3 (cat #575502, Biolegend), 55 μM β-mercaptoethanol (Sigma-Aldrich), 2 mM L-glutamine (Mediatech), and antibiotics. Cells were screened for Mycoplasma every 3 months using the Look-Out Mycoplasma PCR Detection kit (cat #MP0035, Sigma).
IC50 values were calculated using GraphPad Prism (GraphPad Software, Inc, La Jolla, Calif.).

[2] = molecular target: T1, S1P receptor 2 (Homo sapiens, UniProt O95136); experiment: S1P receptor activation in CHO cells, S1P2; settings: CHO cells over-expressing human S1P2
T1 construct: expressed in transfected cells
T1 sequence (O95136 whole entry): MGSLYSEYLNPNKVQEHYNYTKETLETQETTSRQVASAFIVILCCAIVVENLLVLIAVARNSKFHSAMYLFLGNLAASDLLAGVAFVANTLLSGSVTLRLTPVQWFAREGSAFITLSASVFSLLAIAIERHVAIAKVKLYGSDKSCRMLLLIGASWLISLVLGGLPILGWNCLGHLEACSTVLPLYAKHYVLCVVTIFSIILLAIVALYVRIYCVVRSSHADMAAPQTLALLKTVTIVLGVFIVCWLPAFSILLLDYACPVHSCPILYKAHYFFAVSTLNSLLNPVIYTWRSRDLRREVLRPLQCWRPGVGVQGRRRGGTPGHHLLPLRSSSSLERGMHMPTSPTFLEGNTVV
Excerpt: (§1) Phosphorylation may have effects on S1P receptor activity that could cause bradycardia. Bradycardia, the dose-limiting toxicity that prevents the use of FTY720 in cancer patients, stems from FTY720-P's actions on S1P receptors 1 and 3. (Camm, J., et al. (2014) Am. Heart J. 168, 632-644; Cohen, J. A., Chun, J. (2011) Ann. Neurol. 69, 759-777; Sanna, M. G., et al. (2004) J. Biol. Chem. 279, 13839-13848; the disclosures of which are incorporated herein by reference). Phosphorylation by sphingosine kinase may make compounds competent to activate S1P receptors. FTY720, for example, when phosphorylated is known to activate S1P receptors 1 and 3. Because compound 5 could be phosphorylated, the activity of compound 5 and its phosphate 5-P (FIG. 28) on S1P receptors was evaluated (FIG. 32).
(§2) 51P1-5 activation: Chinese hamster ovary (CHO) cells stably over-expressing the different human 51P receptor subtypes are used. S1P1, S1P4 and S1P5 overexpressing CHO cells are cultured in medium containing alpha-MEM supplemented with 10% FBS, 50 μg/ml gentamycin and 0.5 mg/ml G418. S1P2 and S1P3 overexpressing CHO cells are cultured in RPMI containing 10% FBS, 50 μg/ml gentamycin and 0.5 mg/ml G418. Prior to stimulation, cells are rendered serum-free for 24 h. Stimulation is carried out for 10 min in serum-free DMEM containing 0.1 mg/ml of fatty-acid free BSA in the absence or presence of the various compounds or 51P. Protein lysates are prepared using a buffer containing (50 mM Tris pH 7.4, 150 mM NaCl, 10% glycerol, 1% Triton X-100, 2 mM EDTA, 2 mM EGTA, 40 mM β-glycerophosphate, 50 mM sodium fluoride, 10 mM sodium pyrophosphate, 2 mM dithiothreitol, 0.2 mM sodium orthovanadate). Cells are homogenized by one 5 sec burst in a MSE Ultrasonic Disintegrator, centrifuged and taken for protein determination. Equal amounts of protein are separated by SDS-PAGE (10% polyacrylamide gel), transferred to nitrocellulose membranes and subjected to Western blot analysis. Bands were stained using IRDye® secondary antibodies and visualized by the LICOR Odyssey® Fc Imaging system. Antibodies against phospho-Thr202/Tyr204-p42/p44-MAPK and phospho-Ser PKC substrate are from Cell Signaling, Frankfurt am Main, Germany. Polyclonal antisera against total p42 and total p44 were generated and characterized as previously described. (Huwiler, A.; Pfeilschifter, J. Br. J. Pharmacol. 1994, 113, 1455-1463; disclosure of which is incorporated herein by reference).

[3] = molecular target: T2, S1P receptor 3 (Homo sapiens, UniProt Q99500); experiment: S1P receptor activation in CHO cells, S1P3; settings: CHO cells over-expressing human S1P3
T2 construct: expressed in transfected cells
T2 sequence (Q99500 whole entry): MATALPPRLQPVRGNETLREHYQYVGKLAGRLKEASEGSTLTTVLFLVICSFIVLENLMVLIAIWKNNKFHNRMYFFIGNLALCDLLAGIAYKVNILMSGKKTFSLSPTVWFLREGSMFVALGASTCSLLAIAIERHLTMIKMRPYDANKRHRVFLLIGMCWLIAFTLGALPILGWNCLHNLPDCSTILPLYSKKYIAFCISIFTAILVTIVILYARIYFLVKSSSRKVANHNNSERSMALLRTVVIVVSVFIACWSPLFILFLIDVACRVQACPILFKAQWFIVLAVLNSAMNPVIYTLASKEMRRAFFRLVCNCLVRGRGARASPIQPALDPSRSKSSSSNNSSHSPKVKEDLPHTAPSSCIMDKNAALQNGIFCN
Excerpt: as §1, §2

[4] = system: fusion of LC3-positive autophagosomes with LAMP1-positive lysosomes; experiment: Autophagosome-lysosome fusion in chloroquine-treated cells
Method: It is known in the art that cells adapt to nutrient stress by increasing autophagic flux. However, autophagosome-lysosome fusion reactions depend upon […] release via TRPML1 channels that are activated by PI(3,5)P2. […] Chloroquine (CQ) is molecule that stabilizes the transient autophagosomes. Cells were treated with CG to stabilize autophagolysosomes and subsequently treated with FTY720, SH-BC-893, or YM201636. […] Phosphatidylinositol 5-Phosphate (PI(5)P) is essential for autophagosome biogenesis upon glucose depletion. PI(5)P is produced by dephosphorylating PI(3,5)P2, and thus PI(5)P might also be mis-localized in SH-BC-893-treated cells, and thus also contributing to the disruption of autophagosome formation. […] Thus, SH-BC-893 inhibited both autophagosome formation and degradation. As a control, Vac14 over-expression limited vacuolation (FIGS. 55F, 61F, and 62B) and rescued autophagic flux in SH-BC-893-treated cells (FIGS. 61A, 61B, 61D and 61E).
Light Microscopy: Brightfield and epifluorescence microscopy were conducted using a Nikon TE2000-S fluorescence microscope; confocal microscopy was performed on a Zeiss LSM780 confocal microscope or Nikon Eclipse Ti spinning disk confocal microscope. […] Co-localization was determined using JACoP plugin in ImageJ software. Macropinocytosis was measured after 16 h incubation in serum-free DMEM. p53−/−; LSL-K-RasG12D MEFs before (LSL) or after (KRasG12D) introduction of Cre were serum starved for 16 h and then treated with macropinocytosis inhibitor 5-(N-ethyl-N-isopropyl) amiloride (EIPA, 75 μM) for 1 h or SH-BC-893 for 6 h. Oregon Green dextran (Life Technologies, cat #D7173) (1 mg/mL) and Lysotracker Red (Life Technologies, cat #L-7525) (1:2,000 dilution) were added for 30 min and live cells were evaluated on the spinning disc confocal microscope. […]

Structure (SMILES)	IC50 [1]	activation of S1P receptor 2 [2]	activation of S1P receptor 3 [3]	fusion of LC3-positive autophagosomes with LAMP1-positive lysosomes [4]
CCCCCCCCc1ccc([C@H]2CCN[C@@H]2CO)cc1.Cl [Compound 5, (2S,3R)-2-(hydroxymethyl)-3-(4-octylphenyl)Pyrrolidinium chloride]	1.9 µM	failed to activate	failed to activate	reduced fusion
CCCCCCCCc1ccc([C@@H]2CCN[C@H]2CO)cc1.Cl [Compound 6]	–	failed to activate	failed to activate	–
CCCCCCCCc1ccc(CCC(N)(CO)CO)cc1.Cl [FTY720, 2-Amino-2-[2-(4-octylphenyl)ethyl]propane 1,3-diol hydrochloride, reference compound]	2.4 µM	–	–	reduced fusion
